This note sets out measurements from ChEMBL document CHEMBL1201862, “PubChem BioAssay data set” (2004).

Test [1] can be described thus: viability loss in THP-1 monocytes – THP-1 cells, cytotoxicity control for Vif-APOBEC3G degradation inhibitor project, dose response (AID 1117359). It counts as functional. To be noted: THP-1.
Test [2] has as its target Induced myeloid leukemia cell differentiation protein Mcl-1 (Homo sapiens, UniProt Q07820). It is filed as functional.
Test [3] is described as follows: inhibition of ADAM10 peptide cleavage – biochemical, FRET peptide substrate, recombinant human ADAM10, selectivity assay for ADAM17 exosite inhibitor project, dose response (AID 743259).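 Note: ADAM10 enzyme cleaving a FRET peptide substrate.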
The target in test [4] is Disintegrin and metalloproteinase domain-containing protein 17 (Homo sapiens, UniProt P78536). Kind of test: exosite inhibitors of ADAM17, dose response, biochemical (AID 743260).
The next test concerns the target Mu-type opioid receptor (Homo sapiens, UniProt P35372). As to the kind of experiment: Counterscreen for agonists of heterodimerization of the mu 1 (OPRM1) and delta 1 (OPRD1) opioid receptors: Luminescence-based cell-based high throughput dose response assay to identify agonists of OPRM1 homodimerization. It counts as functional. (In general: Counterscreens check selectivity or assay interference.);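 note: U2OS cells expressing OPRM1 and beta-arrestin as split beta-galactosidase partners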

The target of test [5] is T1, Short transient receptor potential channel 4 (Mus musculus, UniProt Q9QUQ5).
T1 sequence (Q9QUQ5 whole entry): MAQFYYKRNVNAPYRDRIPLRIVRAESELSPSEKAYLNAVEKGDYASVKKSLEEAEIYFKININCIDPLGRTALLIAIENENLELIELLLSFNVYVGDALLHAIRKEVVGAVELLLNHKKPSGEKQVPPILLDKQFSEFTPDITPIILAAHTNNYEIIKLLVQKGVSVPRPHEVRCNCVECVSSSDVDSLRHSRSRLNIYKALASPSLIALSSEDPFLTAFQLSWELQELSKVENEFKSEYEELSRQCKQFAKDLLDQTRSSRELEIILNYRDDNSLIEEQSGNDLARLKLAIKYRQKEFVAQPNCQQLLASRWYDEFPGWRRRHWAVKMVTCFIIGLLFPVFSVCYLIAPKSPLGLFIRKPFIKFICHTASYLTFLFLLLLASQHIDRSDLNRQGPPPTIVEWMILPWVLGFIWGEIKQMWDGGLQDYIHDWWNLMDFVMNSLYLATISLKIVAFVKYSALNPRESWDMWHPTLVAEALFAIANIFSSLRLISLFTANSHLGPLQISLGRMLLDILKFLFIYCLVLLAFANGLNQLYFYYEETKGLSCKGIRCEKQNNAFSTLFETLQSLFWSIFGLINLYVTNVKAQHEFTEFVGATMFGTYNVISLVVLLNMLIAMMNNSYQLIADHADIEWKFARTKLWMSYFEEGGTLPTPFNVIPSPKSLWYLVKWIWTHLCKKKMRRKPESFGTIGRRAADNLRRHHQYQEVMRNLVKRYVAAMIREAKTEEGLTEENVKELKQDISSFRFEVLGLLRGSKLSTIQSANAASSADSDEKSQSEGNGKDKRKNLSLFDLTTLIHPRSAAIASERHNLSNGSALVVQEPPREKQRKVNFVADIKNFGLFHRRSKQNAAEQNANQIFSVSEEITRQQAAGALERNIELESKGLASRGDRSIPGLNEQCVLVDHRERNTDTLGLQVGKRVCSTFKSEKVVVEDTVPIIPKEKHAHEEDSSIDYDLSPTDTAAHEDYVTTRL
As to the kind of experiment: calcium entry via TRPC4 opening agents – cell-based, HEK293 TRPC4/mu-opioid, Fluo-4 calcium, dose response (AID 434937). It is filed as functional.

Test [6] has as its target 5-hydroxytryptamine receptor 5A (Homo sapiens, UniProt P47898). As to the kind of experiment: Counterscreen for agonists of OPRM1-OPRD1 heterodimerization: luminescence-based cell-based high throughput dose response assay to identify agonists of 5-hydroxytryptamine (serotonin) 5A receptor (HTR5A). [Related pubchem assays (depositor defined):AID504326, AID504355, AID504692, AID504904, AID504905]. It counts as functional.

In test [7] the target is Delta-type opioid receptor (Homo sapiens, UniProt P41143). As to the kind of experiment: Counterscreen for agonists of heterodimerization of the mu 1 (OPRM1) and delta 1 (OPRD1) opioid receptors: Luminescence-based cell-based high throughput dose response assay to identify agonists of OPRD1 homodimerization. [Related pubchem assays (depositor defined):AID504326, AID504355, AID504692, AID504904, AID504905]. It counts as functional.

Test [8] deals with T2, Low molecular weight phosphotyrosine protein phosphatase (Homo sapiens, UniProt P24666).
T2 sequence (P24666 whole entry): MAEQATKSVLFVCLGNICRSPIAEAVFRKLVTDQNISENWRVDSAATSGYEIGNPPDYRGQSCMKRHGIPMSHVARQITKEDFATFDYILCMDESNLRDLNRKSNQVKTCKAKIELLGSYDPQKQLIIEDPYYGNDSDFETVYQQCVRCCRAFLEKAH
It counts as functional. To be noted: read-out: IC50_Mean.

Test [9] has as its target T3, Methionyl-tRNA synthetase, putative (Trypanosoma brucei brucei, UniProt Q38C91).
T3 sequence (Q38C91 whole entry): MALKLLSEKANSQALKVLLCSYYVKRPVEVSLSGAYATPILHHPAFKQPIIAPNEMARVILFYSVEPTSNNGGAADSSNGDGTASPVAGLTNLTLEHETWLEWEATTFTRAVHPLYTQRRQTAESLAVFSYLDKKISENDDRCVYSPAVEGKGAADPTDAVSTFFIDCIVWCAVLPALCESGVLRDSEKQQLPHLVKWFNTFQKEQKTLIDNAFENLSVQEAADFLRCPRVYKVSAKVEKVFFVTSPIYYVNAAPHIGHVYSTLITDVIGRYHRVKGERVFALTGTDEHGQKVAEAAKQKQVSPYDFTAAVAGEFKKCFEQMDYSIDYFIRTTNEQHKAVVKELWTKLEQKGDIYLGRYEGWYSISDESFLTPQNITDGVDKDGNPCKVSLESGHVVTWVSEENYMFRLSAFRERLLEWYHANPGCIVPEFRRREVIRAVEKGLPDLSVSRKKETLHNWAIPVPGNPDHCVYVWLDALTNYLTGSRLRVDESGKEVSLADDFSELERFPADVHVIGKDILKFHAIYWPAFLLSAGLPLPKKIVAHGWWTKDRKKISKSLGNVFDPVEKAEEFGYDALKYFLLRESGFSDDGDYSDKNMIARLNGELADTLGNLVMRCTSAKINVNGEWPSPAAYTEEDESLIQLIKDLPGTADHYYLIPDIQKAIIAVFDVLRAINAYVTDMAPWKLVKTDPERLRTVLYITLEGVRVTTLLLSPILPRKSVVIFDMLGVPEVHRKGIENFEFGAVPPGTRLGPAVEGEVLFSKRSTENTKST
It is filed as functional, Trypanosoma brucei brucei strain 927/4 GUTat10.1.

Test [10] concerns the target T3, Methionyl-tRNA synthetase, putative. It is filed as functional, Trypanosoma brucei brucei strain 927/4 GUTat10.1. The source holds these as a separate data set.
Test [11] can be described thus: Counterscreen for inhibitors of Trypanosoma brucei methionyl tRNA synthetase (MetRS): Luminescence-based cell-based high throughput dose response assay to identify compounds that are cytotoxic to Jurkat human T lymphocyte cells. It counts as functional.
Test [12] in a line: Dd2 malaria parasite growth inhibition potency – SYBR Green, dry powder samples, dose response (AID 1159566).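 Note: potency for growth inhibition with lower SYBR green DNA signal.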 It is filed as functional, cell-based.
Test [13] in a line: P. falciparum Dd2 growth inhibitors, dose response, SYBR Green, cherry-picked samples (AID 1159567). It counts as functional, cell-based.
The nature of test [14]: growth inhibition of yeast DHODH-expressing 3D7 parasites – SYBR Green, dry powder samples, dose response (AID 1159570).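 Note: parasite growth measured after 72 hours of compound exposure.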 It is filed as functional, cell-based.
Test [15] in a line: toxicity to human HepG2 hepatoma cells – cell-based, plate reader, dry powder samples, cytotoxicity control, dose response (AID 1159569).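 Note: inhibitor potency with signal falling toward the positive control level.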 It counts as functional.
The nature of test [16]: growth inhibition of PfATP4-mutant resistant parasites – NITD609-resistant line, SYBR Green, dry powder, dose response (AID 1159571).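 Note: parasites synchronized at ring stage by sorbitol before testing.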 It is filed as functional, cell-based.
A short description of test [17]: A549 cell cytotoxicity, dose response, cytotoxicity control, plate reader, cherry-pick, antagonist series (AID 743412). It is filed as functional, cell-based.
The nature of test [18]: blockers of bursicon-stimulated LGR2 cAMP reporter – cell-based, HEK293, CRE-luciferase reporter, cherry pick, set 2, dose response (AID 743343).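 Note: transfected cells were stimulated with diluted bursicon conditioned medium after compound addition.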 It counts as functional. For orientation: A reporter such as luciferase makes a cellular process visible.
Test [19] can be described thus: blockade of melanocortin 4 receptor signaling – cell-based, plate reader, cherry pick, counter-screen for LGR2 antagonist project, dose response (AID 743444).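 Note: transfected HEK 293 cells stimulated with alpha-MSH peptide; potency of inhibitors of the alpha-MSH evoked signal.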 It counts as functional.
Another test concerns H9c2. Kind of test: cells. To be noted: Rattus norvegicus, H9c2, Myocardium. It counts as functional, cell-based.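 Note: confirmatory concentration-response retest of ultra-high-throughput screening hits for modulation of myocardial damage; cell death induced by hydrogen peroxide oxidative stress; compound pretreatment for 60 min then peroxide exposure for 2 h; potency is for protecting the cells against peroxide damage rather than for killing them.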
A short description of test [20]: OVCAR8 cell viability loss – plate reader, dry powder samples, PAX8 project, dose response (AID 743197). It counts as functional, cell-based. To be noted: OVCAR-8.
Test [21] is described as follows: OVCAR-3 cell viability loss – plate reader, dry powder samples, PAX8 inhibitor project, dose response (AID 743044). It is filed as functional, cell-based.
The next test deals with Paired box protein Pax-8 (Homo sapiens, UniProt Q06710). As to the kind of experiment: PAX8 transcriptional activity inhibition in RMG-I – RMG-I cells, luciferase, cherry-pick, dose response (AID 687027).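 Note: luciferase reporter driven by Pax8 target thyroperoxidase promoter measured by SteadyGlo luminescence.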 It is filed as functional, cell-based.
The target in the next test is Prothrombin (Homo sapiens, UniProt P00734). As to the kind of experiment: Thrombin 1536 HTS Dose Response Confirmation. [Related pubchem assays: 1046 (Thrombin 1536 HTS; hits were confirmed in this assay)]. It is filed as functional.

Activity calls are given as the source filed them.
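Throughout, for IC50 Mean: Dose-response confirmation assay measuring inhibition of LMPTP enzyme activity by fluorescence intensity read-out.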

Delta-type opioid receptor, sequence (P41143 whole entry): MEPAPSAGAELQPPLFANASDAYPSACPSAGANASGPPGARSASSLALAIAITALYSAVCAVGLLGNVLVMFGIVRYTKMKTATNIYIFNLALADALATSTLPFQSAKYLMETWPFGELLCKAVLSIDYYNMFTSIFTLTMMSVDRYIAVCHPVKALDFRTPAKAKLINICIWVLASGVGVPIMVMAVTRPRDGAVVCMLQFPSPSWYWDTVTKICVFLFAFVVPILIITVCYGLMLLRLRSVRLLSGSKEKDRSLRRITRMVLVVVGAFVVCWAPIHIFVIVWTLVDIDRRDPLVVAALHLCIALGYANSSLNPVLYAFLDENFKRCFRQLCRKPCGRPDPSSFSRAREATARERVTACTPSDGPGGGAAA
5-hydroxytryptamine receptor 5A, sequence (P47898 whole entry): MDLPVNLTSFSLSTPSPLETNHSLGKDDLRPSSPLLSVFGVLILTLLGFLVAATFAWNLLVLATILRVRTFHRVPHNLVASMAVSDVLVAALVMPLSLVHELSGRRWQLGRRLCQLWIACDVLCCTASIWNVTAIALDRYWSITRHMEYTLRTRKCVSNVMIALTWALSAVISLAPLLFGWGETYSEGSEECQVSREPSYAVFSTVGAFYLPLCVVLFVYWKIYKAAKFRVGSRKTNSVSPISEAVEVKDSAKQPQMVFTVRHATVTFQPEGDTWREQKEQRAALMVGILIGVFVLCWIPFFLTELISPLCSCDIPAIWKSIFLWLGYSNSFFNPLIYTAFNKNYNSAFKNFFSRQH
Disintegrin and metalloproteinase domain-containing protein 17, sequence (P78536 whole entry, the tested form may be a part): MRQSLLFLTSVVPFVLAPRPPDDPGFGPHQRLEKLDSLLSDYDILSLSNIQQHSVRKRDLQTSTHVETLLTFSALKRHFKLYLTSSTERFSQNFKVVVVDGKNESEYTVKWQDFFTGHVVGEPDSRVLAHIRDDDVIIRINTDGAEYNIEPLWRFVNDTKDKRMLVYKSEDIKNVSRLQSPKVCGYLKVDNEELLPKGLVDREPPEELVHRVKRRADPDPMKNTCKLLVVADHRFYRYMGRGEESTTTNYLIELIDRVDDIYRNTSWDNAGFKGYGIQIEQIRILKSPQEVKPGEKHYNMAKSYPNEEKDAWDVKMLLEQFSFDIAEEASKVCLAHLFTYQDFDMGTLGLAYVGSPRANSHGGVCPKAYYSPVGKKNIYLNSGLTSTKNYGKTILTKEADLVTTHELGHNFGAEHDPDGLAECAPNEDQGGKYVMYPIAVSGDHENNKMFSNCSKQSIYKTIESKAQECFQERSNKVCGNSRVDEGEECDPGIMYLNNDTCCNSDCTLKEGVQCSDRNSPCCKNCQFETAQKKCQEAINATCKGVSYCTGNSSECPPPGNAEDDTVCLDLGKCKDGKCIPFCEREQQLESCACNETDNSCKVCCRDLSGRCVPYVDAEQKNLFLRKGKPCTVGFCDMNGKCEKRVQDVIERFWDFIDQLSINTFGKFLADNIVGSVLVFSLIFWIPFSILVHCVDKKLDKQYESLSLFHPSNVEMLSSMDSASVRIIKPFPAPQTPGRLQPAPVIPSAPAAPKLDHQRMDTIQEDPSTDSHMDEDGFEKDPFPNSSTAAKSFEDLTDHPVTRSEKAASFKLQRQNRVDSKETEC
Mu-type opioid receptor, sequence (P35372 whole entry): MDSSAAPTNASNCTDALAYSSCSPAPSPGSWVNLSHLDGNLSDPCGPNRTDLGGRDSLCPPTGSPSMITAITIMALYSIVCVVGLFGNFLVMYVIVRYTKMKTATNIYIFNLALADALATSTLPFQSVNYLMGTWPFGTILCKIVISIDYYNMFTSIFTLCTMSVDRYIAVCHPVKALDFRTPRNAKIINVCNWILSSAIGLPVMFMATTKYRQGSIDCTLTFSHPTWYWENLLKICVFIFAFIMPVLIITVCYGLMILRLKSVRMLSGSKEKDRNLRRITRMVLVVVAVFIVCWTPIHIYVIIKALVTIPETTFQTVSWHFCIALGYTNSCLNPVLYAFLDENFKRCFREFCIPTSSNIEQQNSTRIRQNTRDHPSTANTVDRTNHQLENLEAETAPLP
Paired box protein Pax-8, sequence (Q06710 whole entry): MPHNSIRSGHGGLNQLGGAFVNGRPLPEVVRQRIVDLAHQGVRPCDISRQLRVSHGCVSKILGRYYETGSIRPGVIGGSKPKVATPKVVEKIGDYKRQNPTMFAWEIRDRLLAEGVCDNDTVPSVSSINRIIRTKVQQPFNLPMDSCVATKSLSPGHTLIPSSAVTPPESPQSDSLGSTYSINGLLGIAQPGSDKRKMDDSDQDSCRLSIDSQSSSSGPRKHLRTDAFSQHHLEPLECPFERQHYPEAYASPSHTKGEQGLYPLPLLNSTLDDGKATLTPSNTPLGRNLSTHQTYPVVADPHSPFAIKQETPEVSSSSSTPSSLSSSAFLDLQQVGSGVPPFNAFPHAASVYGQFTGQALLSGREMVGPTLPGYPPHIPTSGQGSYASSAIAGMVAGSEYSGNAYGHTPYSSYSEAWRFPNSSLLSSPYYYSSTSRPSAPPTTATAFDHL
Induced myeloid leukemia cell differentiation protein Mcl-1, sequence (Q07820 whole entry): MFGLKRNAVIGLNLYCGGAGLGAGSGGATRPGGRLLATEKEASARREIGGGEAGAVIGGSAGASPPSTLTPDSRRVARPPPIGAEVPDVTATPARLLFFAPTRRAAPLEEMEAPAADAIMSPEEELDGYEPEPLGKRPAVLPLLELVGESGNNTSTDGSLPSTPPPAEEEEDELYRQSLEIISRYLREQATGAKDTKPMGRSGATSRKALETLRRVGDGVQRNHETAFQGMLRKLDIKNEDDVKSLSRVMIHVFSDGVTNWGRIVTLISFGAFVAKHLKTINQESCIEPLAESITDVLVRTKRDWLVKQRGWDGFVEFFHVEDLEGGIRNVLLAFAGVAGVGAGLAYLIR

The CC50 is the concentration at which the toxic effect on the cells reaches its halfway point. In the case of `CC(C)c1ccc(S(=O)(=O)/N=C2/C=CC(=O)c3ccccc32)cc1`, in test [1], the 50% cytotoxic concentration (CC50) was 18.2 µM (active). For the same compound, the IC50 in test [2] was 3.28 µM (active).
Consider `Cc1csc(-c2cnn(-c3ccccc3)c2NC(=O)c2ccc(C(F)(F)F)cc2)n1`, for which the IC50 in test [3] was 24.7 µM (inactive); in [4] it was > 69.5 µM (inactive).
The corresponding values for `O=C(CN1CCN(c2nc(-c3ccccc3)cs2)CC1)Nc1ccc(Cl)c(Cl)c1` are 37.8 µM (inactive) and > 69.6 µM (inactive).
Regarding `Cc1nn(C)cc1CNC(=O)C1C2CCC(C2)C1C(=O)O` (stereo not given), the CC50 in [1] is > 40 µM (active).
Usually EC50 stands for the concentration needed to bring the measured effect to its halfway point. Regarding `CCC(=O)C(CCN1CCOCC1)(c1ccccc1)c1ccccc1`, the EC50 at Mu-type opioid receptor was 12 µM (inactive); in test [5], 0.376 µM (active); in test [6], > 92.5 µM (inactive); in [7] it was > 92.5 µM (inactive).
As for `O=c1cc(-c2ccsc2)oc2cc(-c3ccc4c(c3)OCO4)ccc12`, the IC50 in test [8] is 6.19 µM (active).
For `COC(=O)c1sc(-c2ccc(Cl)cc2)cc1NC(=O)CSCC(=O)O`, the IC50 was 22.5 µM (inactive) in test [9], 18.2 µM (inactive) in test [10] and 83.3 µM (inactive) in test [11].
As a reminder, the AC50 is the midpoint of the concentration-response curve, whichever way the signal moves. `COc1cccc(C#Cc2ccc([C@H]3[C@@H](CO)N4C(=O)CN(C(=O)c5ccccc5)C[C@H]34)cc2)c1`: the AC50 is 0.398 µM (active) in test [12]; 0.791 µM (active) in test [13]; 1.03 µM (active) in test [14]; 22.3 µM (active) in [15]; 0.53 µM (active) in test [16].
As to `Cc1ccc(C)c(S(=O)(=O)N(C(=O)c2ccncc2)c2ccc(OC(=O)c3ccncc3)cc2)c1`, the results for the AC50 in test [17], in [18] and in test [19] were > 52 µM (inactive), 4.05 µM (active) and 1.9 µM (active), respectively. Moreover, the IC50 with H9c2 was > 79 µM (inactive).
Consider `O=C(COC(=O)c1cccc(NS(=O)(=O)/C=C/c2ccccc2)c1)Nc1ccccc1OC(F)F`, for which the values for the IC50 in test [3] and in test [4] were 36 µM (inactive) and > 69.5 µM (inactive), respectively.
For `C[C@@H]1CN([C@H](C)CO)S(=O)(=O)c2ccc(C#CC3CCCC3)cc2O[C@H]1CN(C)Cc1cccnc1`, the AC50 in [20] was 50.2 µM (active); in [21], 26.2 µM (active); on Paired box protein Pax-8, 12.5 µM (active).
As for `Cc1nn(C)cc1CN1CCC(CO)(CCOc2ccccc2)CC1`, on Prothrombin, the IC50 is reported as > 50 µM (not active).
With `COc1ccccc1C(=O)Nc1ccc2c(c1)C(=O)N(C)[C@@H]1CC[C@@H](CC(=O)NCc3ccc(Cl)c(Cl)c3)O[C@H]1CO2`, the AC50 in test [20] is 55.9 µM (active); in [21], 40.8 µM (active); at Paired box protein Pax-8, 1.57 µM (active).
For `O=C(Nc1nc(-c2ccco2)c(-c2ccco2)s1)c1ccc(F)cc1F`, the CC50 in [1] is > 40 µM (active).
As to `CC(C)Oc1ccc(N2CC(C(=O)NC3=NCCS3)CC2=O)cc1` (stereo not given), the IC50 against Prothrombin is listed as > 50 µM (not active).
`COCc1cn([C@@H]2C[C@@H]3O[C@H](CO)CC[C@@H]3O[C@@H]2CCc2ccc(-c3ccc(OC)cc3)cc2)nn1`: the AC50 in [12] was 0.426 µM (active); in test [13], 0.782 µM (active); in test [14], 0.424 µM (active); in test [15] it was 37.4 µM (active); in [16] it was 0.571 µM (active).
With `Cc1cccc2cc(C(c3nnnn3Cc3ccccc3)N3CCN(C)CC3)c(O)nc12` (stereo not given), the EC50 on Mu-type opioid receptor is > 92.5 µM (inactive); in [5] it was 1.88 µM (active); in [6] it was > 92.5 µM (inactive); in test [7], > 92.5 µM (inactive).
As to `CCOC(=O)/C=C1\CN(Cc2ccc(OC)cc2)S(=O)(=O)c2ccccc21`, the IC50 in [3] and in test [4] was > 69.5 µM (inactive) in each case.
Consider `CCOC(=O)C1(Cc2ccccc2)CCN(Cc2cccn2-c2cccnc2)CC1`, for which the EC50 on Mu-type opioid receptor was > 92.5 µM (inactive); in [5], 0.841 µM (active); in test [6], > 92.5 µM (inactive); in [7] it was > 92.5 µM (inactive).
